From publication PMC9300923 (Frontiers in Pharmacology, 2022)

B1: Streptolysin O (natural protein, UniProt P0C0I3 78-571, looked up)
chain: LAPKEMPLESAEKEEKKSEDKKKSEEDHTEEINDKIYSLNYNELEVLAKNGETIENFVPKEGVKKADKFIVIERKKKNINTTPVDISIIDSVTDRTYPAALQLANKGFTENKPDAVVTKRNPQKIHIDLPGMGDKATVEVNDPTYANVSTAIDNLVNQWHDNYSGGNTLPARTQYTESMVYSKSQIEAALNVNSKILDGTLGIDFKSISKGEKKVMIAAYKQIFYTVSANLPNNPADVFDKSVTFKELQRKGVSNEAPPLFVSNVAYGRTVFVKLETSSKSNDVEAAFSAALKGTDVKTNGKYSDILENSSFTAVVLGGDAAEHNKVVTKDFDVIRNVIKDNATFSRKNPAYPISYTSVFLKNNKIAGVNNRTEYVETTSTEYTSGKINLSHQGAYVAQYEILWDEINYDDKGKEVITKRRWDNNWYSKTSPFSTVIPLGANSRNIRIMARECTGLAWEWWRKVIDERDVKLSKEINVNISGSTLSPYGSITYK
notes: Streptolysin O of Group A Streptococcus (Streptococcus pyogenes), amplified from DNA of GAS strain M1; After the BamHI site the forward primer encodes LAPKEMP; The reverse primer runs to the natural stop codon (...YGSITYK-stop); Surmise: cloning into the BamHI/SacI sites of pET28a with the gene's own stop codon would give an N-terminal His6-thrombin site-T7 tag leader; also called SLO; SLO protein

Experiments:
SLY (Suilysin) = SLY (Suilysin) (Streptococcus suis, UniProt Q55996); experiment: biochemical
SLY (Suilysin), sequence (Q55996 28-497 limits assumed): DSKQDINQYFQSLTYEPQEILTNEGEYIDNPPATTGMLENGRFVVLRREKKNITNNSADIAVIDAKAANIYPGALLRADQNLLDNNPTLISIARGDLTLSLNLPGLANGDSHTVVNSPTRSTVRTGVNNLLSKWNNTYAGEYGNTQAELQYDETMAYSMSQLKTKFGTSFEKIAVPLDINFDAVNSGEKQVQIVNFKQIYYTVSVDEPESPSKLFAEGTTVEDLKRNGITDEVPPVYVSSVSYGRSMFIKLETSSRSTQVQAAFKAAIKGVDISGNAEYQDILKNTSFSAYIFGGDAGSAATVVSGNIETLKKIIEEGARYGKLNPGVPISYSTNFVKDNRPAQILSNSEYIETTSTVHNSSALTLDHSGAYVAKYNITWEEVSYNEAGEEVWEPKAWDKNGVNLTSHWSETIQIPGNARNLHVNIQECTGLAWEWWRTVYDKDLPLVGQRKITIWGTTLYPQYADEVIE

[1] = target: the molecule itself; experiment: SDS-PAGE without beta-mercaptoethanol + Western blot of oligomers; purified SLO incubated with or without luteolin at different concentrations, 37°C for 30 min; then 40°C for 10 min in 1x SDS-PAGE loading buffer without β-ME; blot with rabbit polyclonal anti-Streptolysin O; oligomer/monomer ratio by densitometry

Row | Molecule | Kd (SLY (Suilysin)) [nM] | binding result [1]
1 | O=c1cc(-c2ccc(O)c(O)c2)oc2cc(O)cc(O)c12 [Luteolin] | 554 | –
2 | B1 | – | binds
